In ChEMBL document CHEMBL1138948, “Design, synthesis, and evaluation of proline and pyrrolidine based melanocortin receptor agonists. A conformationally restricted dipeptide mimic approach” (J Med Chem, 2006):
pEC50, pKi: −log10 of the molar value.

How the values were obtained:
[1] = Absorptive permeability across Caco-2 cell membrane; format: ADME, cell-based; conditions: human, read-out: permeability (converted)
[2] = biological target: T1, Melanocortin receptor 3 (Homo sapiens, UniProt P41968); test: Displacement of europium labeled NDP-alpha-MSH from human MC3R expressed in HEK293 cells; format: cell-based
T1 sequence (P41968 whole entry): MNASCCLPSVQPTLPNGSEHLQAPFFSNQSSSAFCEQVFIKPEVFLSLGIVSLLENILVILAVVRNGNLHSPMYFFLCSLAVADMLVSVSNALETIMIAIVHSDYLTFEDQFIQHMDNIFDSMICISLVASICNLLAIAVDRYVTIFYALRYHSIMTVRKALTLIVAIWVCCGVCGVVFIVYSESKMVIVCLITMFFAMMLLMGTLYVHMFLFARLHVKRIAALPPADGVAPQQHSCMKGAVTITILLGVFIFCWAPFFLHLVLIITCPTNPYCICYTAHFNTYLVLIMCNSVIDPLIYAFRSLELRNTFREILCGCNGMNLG

[3] = biological target: T2, Melanocortin receptor 4 (Homo sapiens, UniProt P32245); test: Displacement of europium labeled NDP-alpha-MSH from human MC4R expressed in HEK293 cells; format: cell-based
T2 sequence (P32245 whole entry): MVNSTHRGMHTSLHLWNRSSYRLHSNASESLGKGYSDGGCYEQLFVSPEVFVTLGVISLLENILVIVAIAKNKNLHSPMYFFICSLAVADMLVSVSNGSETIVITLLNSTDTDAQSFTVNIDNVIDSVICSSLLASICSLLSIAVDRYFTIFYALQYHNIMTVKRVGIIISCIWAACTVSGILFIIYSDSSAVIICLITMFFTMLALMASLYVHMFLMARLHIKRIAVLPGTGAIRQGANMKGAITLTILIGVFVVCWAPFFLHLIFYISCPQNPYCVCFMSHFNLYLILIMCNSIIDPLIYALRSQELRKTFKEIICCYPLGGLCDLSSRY

[4] = Exsorptive permeability across Caco-2 cell membrane; format: ADME, cell-based; conditions: human, read-out: permeability (converted)
[5] = biological target: T3, Melanocyte-stimulating hormone receptor (Homo sapiens, UniProt Q01726); test: Agonist activity at human MC1R transfected in HEK293 cells; format: functional, cell-based
T3 sequence (Q01726 whole entry): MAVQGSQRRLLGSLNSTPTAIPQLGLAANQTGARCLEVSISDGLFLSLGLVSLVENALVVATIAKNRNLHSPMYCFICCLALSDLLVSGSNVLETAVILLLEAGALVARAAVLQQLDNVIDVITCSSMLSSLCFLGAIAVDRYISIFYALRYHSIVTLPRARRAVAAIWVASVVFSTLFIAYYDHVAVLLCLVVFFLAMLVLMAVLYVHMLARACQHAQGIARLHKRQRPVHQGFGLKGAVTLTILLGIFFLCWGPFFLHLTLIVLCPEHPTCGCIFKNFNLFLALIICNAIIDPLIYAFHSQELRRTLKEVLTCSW

[6] = biological target: T3, Melanocyte-stimulating hormone receptor; test: Displacement of europium labeled NDP-alpha-MSH from human MC1R expressed in HEK293 cells; format: cell-based
[7] = biological target: T2, Melanocortin receptor 4; test: Agonist activity at human MC4R transfected in HEK293 cells; format: functional, cell-based
[8] = biological target: T1, Melanocortin receptor 3; test: Agonist activity at human MC3R transfected in HEK293 cells; format: functional, cell-based

Papp A→B [1] [×10⁻⁶ cm/s]	pKi [2]	pKi [3]	Papp [4] [×10⁻⁶ cm/s]	pEC50 [5]	pKi [6]	pEC50 [7]	pEC50 [8]	Compound
1	6.08	5.80	0.5	8.52	7.89	6.82	6.47	CC(=O)N[C@@H](Cc1cnc[nH]1)C(=O)N[C@H](Cc1ccccc1)C(=O)N1C[C@H](OCc2ccc3ccccc3c2)C[C@@H]1C(=O)NCCN=C(N)N
7.5	6.54	7.05	6.17	6.63	6.33	6.50	5.86	CC(=O)N[C@H](Cc1ccccc1)C(=O)N1C[C@H](OCc2ccc3ccccc3c2)C[C@@H]1CCCN=C(N)N
